The values below come from US7074789B2, “Kinase inhibitors” (Amgen Inc., priority 1999, dated 2006).

Holding throughout (type): biochemical
The target of experiment [1] is T1, Lck (Homo sapiens, UniProt P06239).
T1 construct: Kinases are expressed as either kinase domains or full length constructs; made in house
Nature of the experiment: Kinase inhibition assay (33P transfer), Lck. Particulars: Table 3; read-out: Lck-1. The essentials: (§1)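 Kinase domains or full-length kinases, GST- or His-tagged and expressed in E. coli or baculovirus/High Five cells, transferred 33PO4 from ATP onto plate-bound poly(Glu,Tyr) 4:1 or poly(Arg,Ser) 3:1. After incubation, plates were washed with 0.5% phosphoric acid and counted by liquid scintillation.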

Experiment [2] deals with T2, Lyn (Homo sapiens, UniProt P07948).
T2 construct: Kinases are expressed as either kinase domains or full length constructs; made in house
T2 sequence (P07948 whole entry, species assumed, the tested form may be a part): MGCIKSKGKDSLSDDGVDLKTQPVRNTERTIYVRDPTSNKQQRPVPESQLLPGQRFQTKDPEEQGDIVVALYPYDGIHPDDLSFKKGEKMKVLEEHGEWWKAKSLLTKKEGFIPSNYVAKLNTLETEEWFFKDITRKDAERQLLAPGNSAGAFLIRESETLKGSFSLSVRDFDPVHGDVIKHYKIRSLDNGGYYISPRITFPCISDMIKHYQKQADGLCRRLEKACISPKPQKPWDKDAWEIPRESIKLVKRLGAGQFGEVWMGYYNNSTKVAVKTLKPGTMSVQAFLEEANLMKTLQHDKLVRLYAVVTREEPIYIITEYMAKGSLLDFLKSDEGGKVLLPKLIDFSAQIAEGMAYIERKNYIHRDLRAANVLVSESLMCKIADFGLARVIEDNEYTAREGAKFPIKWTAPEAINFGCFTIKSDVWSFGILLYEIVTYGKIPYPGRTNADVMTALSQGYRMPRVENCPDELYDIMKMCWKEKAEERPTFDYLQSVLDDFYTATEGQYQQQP
Kind of experiment: Kinase inhibition assay (33P transfer), Lyn. Particulars: Table 6, Lyn-1 kinase inhibition class. Put shortly:
(§2)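 Recombinant kinase domains or full-length GST- or His-tagged constructs, from E. coli or baculovirus/High Five cells, sometimes with regulatory polypeptides. Transfer of 33P from ATP to plate-bound poly(Glu,Tyr) 4:1 or poly(Arg,Ser) 3:1 counted by liquid scintillation after phosphoric acid wash; IC50 is the concentration halving incorporation.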

For experiment [3], the target named is T3, Src (Homo sapiens, UniProt P12931).
T3 construct: Kinases are expressed as either kinase domains or full length constructs; made in house
T3 sequence (P12931 whole entry, species assumed, the tested form may be a part): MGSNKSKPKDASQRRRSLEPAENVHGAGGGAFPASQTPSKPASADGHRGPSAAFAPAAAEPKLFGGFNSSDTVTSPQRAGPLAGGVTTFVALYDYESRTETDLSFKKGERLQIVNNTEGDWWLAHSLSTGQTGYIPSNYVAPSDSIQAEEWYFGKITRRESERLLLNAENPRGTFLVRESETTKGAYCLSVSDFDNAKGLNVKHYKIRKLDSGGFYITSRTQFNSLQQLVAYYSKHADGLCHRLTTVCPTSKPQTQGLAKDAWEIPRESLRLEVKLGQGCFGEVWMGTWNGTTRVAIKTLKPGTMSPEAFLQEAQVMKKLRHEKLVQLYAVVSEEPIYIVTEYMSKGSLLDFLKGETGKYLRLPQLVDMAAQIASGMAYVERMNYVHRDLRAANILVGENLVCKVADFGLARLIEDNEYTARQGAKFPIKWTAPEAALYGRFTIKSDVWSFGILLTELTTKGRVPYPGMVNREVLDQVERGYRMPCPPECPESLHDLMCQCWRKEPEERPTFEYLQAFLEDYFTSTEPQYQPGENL
Kind of experiment: Kinase inhibition assay (33P transfer), Src. Particulars: Table 6, Src-1 kinase inhibition class. The essentials:
as §2

In experiment [4] the target is T4, Fyn (Homo sapiens, UniProt P06241).
T4 construct: Kinases are expressed as either kinase domains or full length constructs; made in house
Kind of experiment: Kinase inhibition assay (33P transfer), Fyn. The following applies: read-out: Fyn-1. Put shortly: as §2

The target in experiment [5] is T5, EGFR (Homo sapiens, UniProt P00533).
T5 construct: Kinases are expressed as either kinase domains or full length constructs; made in house
Nature of the experiment: Kinase inhibition assay (33P transfer), EGFR. The following applies: Table 2, kinase inhibition class; read-out: EGFR-1. The essentials: as §2

The target of experiment [6] is T6, Flt-1 (Homo sapiens, UniProt P17948).
T6 construct: Kinases are expressed as either kinase domains or full length constructs; made in house
Nature of the experiment: Kinase inhibition assay (33P transfer), Flt-1. Put shortly:
as §2

For experiment [7], the target named is T7, Tek (Homo sapiens, UniProt Q02763).
T7 construct: Kinases are expressed as either kinase domains or full length constructs; made in house
Kind of experiment: Kinase inhibition assay (33P transfer), Tek. Particulars: read-out: Tek-1. The essentials:
as §2

In experiment [8] the target is T8, c-Met (Homo sapiens, UniProt P08581).
T8 construct: Kinases are expressed as either kinase domains or full length constructs; made in house
T8 sequence (P08581 25-1390): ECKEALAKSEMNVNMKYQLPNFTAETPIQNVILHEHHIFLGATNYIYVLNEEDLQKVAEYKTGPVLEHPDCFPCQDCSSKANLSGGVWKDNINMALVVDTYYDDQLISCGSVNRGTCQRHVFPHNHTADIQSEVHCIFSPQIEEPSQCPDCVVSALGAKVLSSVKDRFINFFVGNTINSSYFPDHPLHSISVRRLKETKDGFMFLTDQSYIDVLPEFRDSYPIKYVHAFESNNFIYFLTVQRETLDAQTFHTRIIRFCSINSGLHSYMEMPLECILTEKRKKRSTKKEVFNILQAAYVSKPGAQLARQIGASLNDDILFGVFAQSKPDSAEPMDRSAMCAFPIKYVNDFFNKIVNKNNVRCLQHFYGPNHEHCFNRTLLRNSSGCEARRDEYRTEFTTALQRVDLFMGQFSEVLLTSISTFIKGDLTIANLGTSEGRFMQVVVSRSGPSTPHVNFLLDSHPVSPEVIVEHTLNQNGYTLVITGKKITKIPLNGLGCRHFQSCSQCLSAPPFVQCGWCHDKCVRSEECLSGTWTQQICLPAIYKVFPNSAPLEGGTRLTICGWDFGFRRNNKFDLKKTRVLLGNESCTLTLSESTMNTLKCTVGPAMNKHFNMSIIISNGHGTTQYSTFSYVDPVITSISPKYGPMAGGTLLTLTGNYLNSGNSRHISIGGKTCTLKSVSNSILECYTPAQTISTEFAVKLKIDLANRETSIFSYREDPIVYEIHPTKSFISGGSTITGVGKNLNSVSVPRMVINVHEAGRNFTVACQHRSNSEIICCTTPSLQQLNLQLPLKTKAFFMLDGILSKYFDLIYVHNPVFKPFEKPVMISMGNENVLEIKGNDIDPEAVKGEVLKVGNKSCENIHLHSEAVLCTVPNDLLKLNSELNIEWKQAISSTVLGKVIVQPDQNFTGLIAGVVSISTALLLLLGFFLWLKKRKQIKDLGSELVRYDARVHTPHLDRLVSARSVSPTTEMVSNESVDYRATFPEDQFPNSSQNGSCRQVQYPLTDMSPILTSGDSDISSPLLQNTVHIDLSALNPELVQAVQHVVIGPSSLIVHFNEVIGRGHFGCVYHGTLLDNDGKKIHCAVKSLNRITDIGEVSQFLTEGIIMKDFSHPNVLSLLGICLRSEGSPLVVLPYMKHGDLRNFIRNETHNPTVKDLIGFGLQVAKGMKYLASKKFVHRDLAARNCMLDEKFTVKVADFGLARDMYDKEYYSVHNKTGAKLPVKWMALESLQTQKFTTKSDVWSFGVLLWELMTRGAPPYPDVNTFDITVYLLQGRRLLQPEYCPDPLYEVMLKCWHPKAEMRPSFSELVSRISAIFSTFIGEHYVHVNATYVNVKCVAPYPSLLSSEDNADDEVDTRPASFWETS
Nature of the experiment: Kinase inhibition assay (33P transfer), c-Met. Particulars: Table 2, kinase inhibition class; read-out: Met-1. Put shortly:
as §2

Experiment [9] deals with T9, AKT (Homo sapiens, UniProt Q9Y243).
T9 construct: Kinases are expressed as either kinase domains or full length constructs; made in house
T9 sequence (Q9Y243 whole entry, the tested form may be a part): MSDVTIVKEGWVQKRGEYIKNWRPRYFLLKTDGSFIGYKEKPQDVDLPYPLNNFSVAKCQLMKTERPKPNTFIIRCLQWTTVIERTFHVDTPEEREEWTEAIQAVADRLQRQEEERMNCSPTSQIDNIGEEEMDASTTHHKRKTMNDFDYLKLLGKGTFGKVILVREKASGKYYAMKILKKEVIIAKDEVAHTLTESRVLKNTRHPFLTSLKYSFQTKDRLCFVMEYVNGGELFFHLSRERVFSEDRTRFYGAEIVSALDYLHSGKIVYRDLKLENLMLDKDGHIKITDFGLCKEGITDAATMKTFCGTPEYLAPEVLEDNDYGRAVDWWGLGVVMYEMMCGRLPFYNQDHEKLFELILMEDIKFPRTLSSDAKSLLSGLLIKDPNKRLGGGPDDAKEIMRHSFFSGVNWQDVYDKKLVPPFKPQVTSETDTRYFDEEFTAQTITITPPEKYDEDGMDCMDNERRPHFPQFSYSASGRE
Kind of experiment: Kinase inhibition assay (33P transfer), AKT. Particulars: Table 2, kinase inhibition class; read-out: AKT3-1. Put shortly: as §1

Experiment [10] concerns the target T10, IGFR-1 (Homo sapiens, UniProt P08069).
T10 construct: Kinases are expressed as either kinase domains or full length constructs; made in house
Nature of the experiment: Kinase inhibition assay (33P transfer), IGFR-1. The following applies: Table 2, kinase inhibition class.

The target of experiment [11] is T11, PDGFRB (Homo sapiens, UniProt P09619).
T11 construct: Kinases are expressed as either kinase domains or full length constructs; made in house
Nature of the experiment: Kinase inhibition assay (33P transfer), PDGFRB. Particulars: read-out: PDGFRB-1.

In experiment [12] the target is T12, EPHB4 (Homo sapiens, UniProt P54760).
T12 construct: Kinases are expressed as either kinase domains or full length constructs; made in house
T12 sequence (P54760 16-987): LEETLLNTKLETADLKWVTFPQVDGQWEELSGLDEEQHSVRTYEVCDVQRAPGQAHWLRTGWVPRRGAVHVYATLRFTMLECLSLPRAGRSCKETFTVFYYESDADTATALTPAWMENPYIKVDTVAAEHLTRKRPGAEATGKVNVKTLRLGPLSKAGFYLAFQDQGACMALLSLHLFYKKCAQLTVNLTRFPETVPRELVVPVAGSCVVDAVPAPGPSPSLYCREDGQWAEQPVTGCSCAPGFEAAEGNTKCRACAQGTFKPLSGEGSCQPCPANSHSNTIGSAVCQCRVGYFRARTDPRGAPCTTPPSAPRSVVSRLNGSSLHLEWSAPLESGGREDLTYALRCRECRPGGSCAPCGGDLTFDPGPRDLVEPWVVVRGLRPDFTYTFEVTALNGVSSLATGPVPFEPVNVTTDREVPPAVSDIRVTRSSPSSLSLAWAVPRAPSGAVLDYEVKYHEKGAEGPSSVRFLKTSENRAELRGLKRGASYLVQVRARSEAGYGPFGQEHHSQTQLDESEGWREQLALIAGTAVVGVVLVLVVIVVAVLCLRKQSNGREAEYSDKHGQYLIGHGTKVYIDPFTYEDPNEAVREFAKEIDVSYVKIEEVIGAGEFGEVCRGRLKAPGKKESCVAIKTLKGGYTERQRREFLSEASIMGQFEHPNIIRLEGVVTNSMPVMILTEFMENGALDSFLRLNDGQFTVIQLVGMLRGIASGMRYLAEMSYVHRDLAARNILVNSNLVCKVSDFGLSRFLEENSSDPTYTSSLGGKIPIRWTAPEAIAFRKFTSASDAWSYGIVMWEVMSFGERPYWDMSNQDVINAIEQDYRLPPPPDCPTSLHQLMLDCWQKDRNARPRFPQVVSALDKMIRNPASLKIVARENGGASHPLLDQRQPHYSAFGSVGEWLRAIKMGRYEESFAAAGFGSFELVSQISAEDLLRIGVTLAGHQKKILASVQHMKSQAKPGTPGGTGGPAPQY
Nature of the experiment: Kinase inhibition assay (33P transfer), EPHB4. Particulars: read-out: EPHB4-1.

The target of experiment [13] is T13, Hck-1 (Homo sapiens, UniProt P08631).
T13 construct: Kinases are expressed as either kinase domains or full length constructs; made in house
Nature of the experiment: Kinase inhibition assay (33P transfer), Hck. Particulars: Table 6, Hck-1 kinase inhibition class.

In experiment [14] the target is T14, ErbB4 (Homo sapiens, UniProt Q15303).
T14 construct: Kinases are expressed as either kinase domains or full length constructs; made in house
T14 sequence (Q15303 26-1308, species assumed): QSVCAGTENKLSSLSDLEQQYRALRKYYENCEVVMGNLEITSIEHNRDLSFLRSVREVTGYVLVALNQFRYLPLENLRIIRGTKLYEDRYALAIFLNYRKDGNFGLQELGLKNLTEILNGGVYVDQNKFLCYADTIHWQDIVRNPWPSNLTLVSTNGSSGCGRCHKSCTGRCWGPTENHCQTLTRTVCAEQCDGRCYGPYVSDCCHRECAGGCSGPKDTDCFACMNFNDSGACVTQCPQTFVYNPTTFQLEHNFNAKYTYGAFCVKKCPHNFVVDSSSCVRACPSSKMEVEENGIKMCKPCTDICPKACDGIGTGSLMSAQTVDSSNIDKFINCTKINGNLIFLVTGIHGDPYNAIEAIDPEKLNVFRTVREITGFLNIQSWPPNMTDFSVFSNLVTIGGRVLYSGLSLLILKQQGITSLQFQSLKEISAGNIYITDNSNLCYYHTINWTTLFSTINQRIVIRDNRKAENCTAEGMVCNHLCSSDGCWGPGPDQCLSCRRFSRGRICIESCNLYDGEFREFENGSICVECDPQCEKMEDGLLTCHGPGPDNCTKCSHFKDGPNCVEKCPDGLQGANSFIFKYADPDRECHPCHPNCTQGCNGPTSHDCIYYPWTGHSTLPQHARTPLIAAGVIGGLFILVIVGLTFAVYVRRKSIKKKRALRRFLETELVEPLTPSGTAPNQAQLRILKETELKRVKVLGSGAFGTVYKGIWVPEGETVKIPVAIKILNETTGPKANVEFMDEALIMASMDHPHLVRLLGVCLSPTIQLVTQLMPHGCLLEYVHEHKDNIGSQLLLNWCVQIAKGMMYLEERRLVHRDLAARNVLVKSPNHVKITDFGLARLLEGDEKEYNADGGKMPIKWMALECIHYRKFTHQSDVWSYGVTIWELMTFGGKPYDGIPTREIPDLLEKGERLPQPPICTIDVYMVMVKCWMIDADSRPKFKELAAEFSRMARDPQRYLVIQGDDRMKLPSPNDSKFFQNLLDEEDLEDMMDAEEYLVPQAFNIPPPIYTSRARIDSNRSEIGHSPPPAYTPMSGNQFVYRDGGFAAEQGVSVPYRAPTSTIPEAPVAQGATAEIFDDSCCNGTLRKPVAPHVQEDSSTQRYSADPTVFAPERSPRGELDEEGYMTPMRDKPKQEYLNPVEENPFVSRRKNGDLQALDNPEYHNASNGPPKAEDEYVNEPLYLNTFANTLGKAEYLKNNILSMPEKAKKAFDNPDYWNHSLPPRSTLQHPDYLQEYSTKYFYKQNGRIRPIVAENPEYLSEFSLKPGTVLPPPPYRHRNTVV
Kind of experiment: Kinase inhibition assay (33P transfer), ErbB4. Particulars: read-out: ErbB4-1.

The target in experiment [15] is T15, FGFR1 (Homo sapiens, UniProt P11362).
T15 construct: Kinases are expressed as either kinase domains or full length constructs; made in house
T15 sequence (P11362 22-822, species assumed): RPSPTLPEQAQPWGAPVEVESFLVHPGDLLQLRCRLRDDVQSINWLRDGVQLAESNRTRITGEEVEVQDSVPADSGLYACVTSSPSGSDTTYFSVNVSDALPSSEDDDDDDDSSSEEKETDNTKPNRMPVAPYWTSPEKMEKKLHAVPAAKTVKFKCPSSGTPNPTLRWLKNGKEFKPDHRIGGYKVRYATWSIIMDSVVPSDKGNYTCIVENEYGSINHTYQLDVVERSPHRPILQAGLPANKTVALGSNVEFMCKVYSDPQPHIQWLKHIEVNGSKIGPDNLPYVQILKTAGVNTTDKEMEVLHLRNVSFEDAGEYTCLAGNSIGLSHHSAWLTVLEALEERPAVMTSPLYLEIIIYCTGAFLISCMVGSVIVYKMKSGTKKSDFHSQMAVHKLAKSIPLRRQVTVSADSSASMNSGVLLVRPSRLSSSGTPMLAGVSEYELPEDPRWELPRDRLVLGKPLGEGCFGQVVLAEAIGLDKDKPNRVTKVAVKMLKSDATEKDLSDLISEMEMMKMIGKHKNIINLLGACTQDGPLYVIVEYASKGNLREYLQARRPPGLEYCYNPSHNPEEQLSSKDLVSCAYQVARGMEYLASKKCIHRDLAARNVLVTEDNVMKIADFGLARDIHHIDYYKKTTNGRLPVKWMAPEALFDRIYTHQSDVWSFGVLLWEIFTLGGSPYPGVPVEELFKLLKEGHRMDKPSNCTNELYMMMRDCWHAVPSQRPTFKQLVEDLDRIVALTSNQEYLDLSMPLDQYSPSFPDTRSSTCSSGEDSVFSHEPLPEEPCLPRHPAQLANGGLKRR
Nature of the experiment: Kinase inhibition assay (33P transfer), FGFR1. Particulars: read-out: FGFR1-1.

As for `COc1cc(Nc2ncnc(Nc3cccc(O)c3)n2)cc(OC)c1OC` [Compound 78], the IC50 was 1080 to 6500 nM in experiment [1]; less than 1080 nM in experiment [2]; less than 1080 nM in [3]; less than 1.08 µM in experiment [4]; less than 1080 nM in [5]; less than 1080 nM in [6]. For the same compound, the IC50 in experiment [7] is greater than 12.2 µM; in [8], greater than 12.2 µM; in experiment [9] it was greater than 12.2 µM; in experiment [10] it was 1.08 to 6.5 µM; in experiment [11] it was less than 1080 nM; in experiment [12], less than 1.08 µM. Moreover, the IC50 in experiment [13] was 1.08 to 6.5 µM; in experiment [14] it was 1.08 to 6.5 µM; in experiment [15] it was less than 1080 nM.

For `COc1cc(Nc2ncnc(Nc3ccc(Oc4ccccc4)cc3)n2)cc(OC)c1OC` [Compound 29], the IC50 in experiment [1] is less than 898 nM; in [2] it was less than 898 nM; in [3] it was less than 898 nM; in experiment [4], less than 0.898 µM; in [5], less than 898 nM; in experiment [6] it was less than 898 nM. In addition, the IC50 in [7] was greater than 10.1 µM; in [8] it was 7.86 to 10.1 µM; in experiment [9], greater than 10.1 µM; in experiment [10], 5.39 to 7.86 µM; in experiment [11], 898 to 5390 nM; in experiment [12], greater than 10.1 µM. In addition, the figures for the IC50 in [13], in experiment [14] and in experiment [15] were greater than 10.1 µM, 0.898 to 5.39 µM and less than 898 nM, respectively.

In the case of `COc1cc(Nc2ncnc(-n3c(Nc4cccc(C(N)=O)c4)nc4ccccc43)n2)cc(OC)c1OC` [Compound 377], the IC50 in experiment [1] was 780 to 4680 nM; in [2], greater than 8780 nM; in experiment [3], greater than 8780 nM; in experiment [4] it was greater than 8.78 µM; in experiment [5] it was greater than 8780 nM; in experiment [6], less than 780 nM. The IC50 in [7] is 6.83 to 8.78 µM; in experiment [8], 6.83 to 8.78 µM; in experiment [9] it was greater than 8.78 µM; in experiment [10] it was 4.68 to 6.83 µM; in [11], less than 780 nM; in experiment [12] it was 0.78 to 4.68 µM. The figures for the IC50 in experiment [13], in experiment [14] and in experiment [15] were greater than 8.78 µM, greater than 8.78 µM and less than 780 nM, respectively.

For `COc1cc(Nc2ncnc(Nc3ccc(C)c(O)c3)n2)cc(OC)c1OC` [Compound 83], the IC50 in experiment [1] was less than 1040 nM; in experiment [2] it was less than 1040 nM; in experiment [3], less than 1040 nM; in experiment [4], less than 1.04 µM; in experiment [5] it was less than 1040 nM; in experiment [6], less than 1040 nM. The IC50 in experiment [7] is 9.13 to 11.7 µM; in experiment [8] it was greater than 11.7 µM; in experiment [9] it was greater than 11.7 µM; in [10], 1.04 to 6.26 µM; in [11], less than 1040 nM; in experiment [12] it was 1.04 to 6.26 µM. Moreover, the IC50 is 1.04 to 6.26 µM in experiment [13], 1.04 to 6.26 µM in [14] and less than 1040 nM in [15].

Consider `COc1cc(Nc2ncnc(Nc3ccc(OCc4ccccc4)cc3)n2)cc(OC)c1OC` [Compound 926], for which the IC50 in experiment [1] is 871 to 5220 nM; in experiment [2], 871 to 5220 nM; in experiment [3], 871 to 5220 nM; in experiment [4], 5.22 to 7.62 µM; in experiment [5], 871 to 5220 nM; in experiment [6], 871 to 5220 nM. In addition, the IC50 in experiment [7] is 7.62 to 9.79 µM; in [8], 7.62 to 9.79 µM; in experiment [9] it was greater than 9.79 µM; in [10], greater than 9.79 µM; in experiment [11], less than 871 nM; in experiment [12], greater than 9.79 µM. For the same compound, the IC50 in [13] was greater than 9.79 µM; in [14], greater than 9.79 µM; in experiment [15] it was 871 to 5220 nM.

Regarding `COc1cc(Nc2ncnc(-c3c(O)[nH]c4ccccc34)n2)cc(OC)c1OC` [Compound 380], the IC50 was greater than 11400 nM in [1]; 1020 to 6100 nM in [2]; greater than 11400 nM in experiment [3]; 1.02 to 6.1 µM in experiment [4]; greater than 11400 nM in experiment [5]; less than 1020 nM in [6]. Further, the IC50 in experiment [7] was greater than 11.4 µM; in experiment [8] it was greater than 11.4 µM; in experiment [9], greater than 11.4 µM; in [10] it was 6.1 to 8.9 µM; in [11] it was less than 1020 nM; in experiment [12] it was greater than 11.4 µM. The IC50 in experiment [13] was greater than 11.4 µM; in [14], 1.02 to 6.1 µM; in [15], less than 1020 nM.
